What was measured:
[1] = tested on: HCT-116 cells; test: MTS assay cell viability under SN-38 exposure, HCT-116; assay type: cell-based, human; settings: HCT-116, 50 nmol/L SN-38, exposure for 72 hours
Experimental: (§1) Two human colorectal cancer cell lines (HCT-116 and HT-29) employed were obtained from Kabushiki Kaisha Yakult Honsha.
(§2) Cell culturing was performed by means of a φ100 mm/Tissue Culture Dish (IWAKI) with a medium (Doulbecco's modified Eagle's Medium, 10% fetal bovine serum) at 37° C. under 5% CO2.
(§3) SN-38 powder was obtained from Kabushiki Kaisha Yakult Honsha. SN-38 was dissolved in DMSO, and, before use, the solution was diluted so that the DMSO concentration of each of the culture media employed in experiments was adjusted to 0.1% or less.
(§4) Cells of two colorectal cancer cell lines (HCT-116 and HT-29) were exposed to 50 nmol/L SN-38, and 24, 48, and 72 hours after drug exposure, cell viability was determined by means of an MTS assay (CellTiter96™AQueous One Solution Cell Proliferation Assay, Promega). Sensitivity evaluation of each cell line was performed in triplicate with three different passage numbers of cells, and the mean value and standard deviation were calculated.

[2] = background statement; cited from earlier work
[3] = tested on: WiDr; test: MTS assay sensitivity (IC50) to SN-38, WiDr (Example 3); assay type: cell-based, human; settings: 72 hours exposure, highest IC50 of eight lines
Experimental: (§5) Cancer cells of each cell line were exposed to SN-38 (0 nmol/L to 5 μmol/L) for 72 hours. After exposure to SN-38, cell viability was determined by means of an MTS assay (CellTiter96™AQueous One Solution Cell Proliferation Assay, Promega). IC50 (concentration of SN-38 at which 50% of cells in an SN-38-non-treated well are inhibited) was calculated for each cell line and employed as the sensitivity of the cell line to SN-38. Sensitivity determination of each cell line was performed in triplicate and twice.
(§6) The experiment procedure of Example 2 was repeated twice. The data obtained in the experiments (three times in total) were further analyzed. Peaks detected through CE-TOFMS in the tested cell samples were compared with the data of 278 standard samples whose m/z values and migration times were already known, whereby 146 metabolites were identified in any of the tested cell samples. The 146 metabolites were investigated through single regression analysis in terms of the correlation between the intracellular content (in eight human colorectal cancer cell lines) and Log[IC50] of each cell line.
(§7) The sensitivity of each of eight human colorectal cancer cell lines (HCT-116, HT-29, HCT-15, Lovo, LS174T, SW480, SW620, and WiDr) was evaluated by employing IC50 calculated through MTS assay as an index.

[4] = tested on: HT-29 cells; test: MTS assay cell viability under SN-38 exposure, HT-29; assay type: cell-based, human; settings: HT-29, 50 nmol/L SN-38, exposure for 72 hours
Experimental: as §1, §2, §3, §4

[5] = tested on: LS174T; test: MTS assay sensitivity (IC50) to SN-38, LS174T (Example 3); assay type: cell-based, human; settings: 72 hours exposure, lowest IC50 of eight lines
Experimental: as §5, §6, §7

Structure (SMILES) | cell viability [1] | anti-tumor activity relative to CPT-11 [2] | IC50 [3] [µM] | cell viability [4] | IC50 [5] [µM] | cytotoxicity [2]
CCc1c2c(nc3ccc(O)cc13)-c1cc3c(c(=O)n1C2)COC(=O)[C@]3(O)CC [SN-38, 7-ethyl-10-hydroxycamptothecin] | about 35% | about 100 times to some thousand times that of CPT-11 | 0.0633 ± 0.0109 | about 85% | 0.00071 ± 0.00018 | 
CCc1c2c(nc3ccc(O[C@@H]4O[C@H](C(=O)O)[C@@H](O)[C@H](O)[C@H]4O)cc13)-c1cc3c(c(=O)n1C2)COC(=O)[C@]3(O)CC [SN-38G, SN-38 glucuronate conjugate] |  |  |  |  |  | no cytotoxicity

Reference: patent publication US8809362B2, “Anticancer agent sensitivity-determining marker” (priority 2009, dated 2014)
